The compounds below were run against CDK2 (human) (UniProt P24941) (assay: Enzyme Assay).

IC50, < 0.5 µM:
CCN(CC)CCCOC(=O)c1cc(-c2csc(-c3ccncc3)n2)c(=O)[nH]c1C(C)C
CCOC(=O)c1cc(-c2csc(-c3ccnc(Cl)c3)n2)c(=O)[nH]c1C
Cc1[nH]c(=O)c(-c2csc(-c3ccnc(NCC4CC4)c3)n2)cc1C(=O)NCC1CC1
CC(C)c1ccc(-c2csc(-c3ccncc3)n2)c(=O)[nH]1
CCOC(=O)c1cc(-c2csc(-c3ccncc3)n2)c(=O)[nH]c1C
CCCc1[nH]c(=O)c(-c2csc(-c3ccncc3)n2)cc1C(=O)OCC
CCOC(=O)c1cc(-c2csc(-c3ccnc(NCCN(CC)CC)c3)n2)c(=O)[nH]c1C
CCOC(=O)c1cc(-c2csc(-c3ccnc(NC)c3)n2)c(=O)[nH]c1C
CCCCNc1cc(-c2nc(-c3cc(C(=O)OCC)c(C)[nH]c3=O)cs2)ccn1
CCOC(=O)c1cc(-c2csc(CS(=O)(=O)c3ccccc3)n2)c(=O)[nH]c1C1CC1
CCOC(=O)c1cc(-c2csc(-c3ccnc(NCC(N)=O)c3)n2)c(=O)[nH]c1C
CCOC(=O)c1cc(-c2csc(-c3ccnc(NCc4cccnc4)c3)n2)c(=O)[nH]c1C
CCOC(=O)c1cc(-c2csc(-c3ccnc(NCC(C)C)c3)n2)c(=O)[nH]c1C
CCOC(=O)c1cc(-c2csc(CSc3ccccc3)n2)c(=O)[nH]c1C
CCOC(=O)c1cc(-c2csc(-c3c(Cl)cncc3Cl)n2)c(=O)[nH]c1C
CCOC(=O)c1cc(-c2csc(CS(=O)(=O)c3ccccc3)n2)c(=O)[nH]c1C(C)C
CCOC(=O)c1cc(-c2csc(-c3ccncc3)n2)c(=O)[nH]c1C(C)C
CCOC(=O)c1cc(-c2csc(CS(=O)(=O)c3ccccc3)n2)c(=O)[nH]c1C
Cc1[nH]c(=O)c(-c2csc(-c3ccnc(NCc4ccccn4)c3)n2)cc1C(=O)NCc1ccccn1
Cc1[nH]c(=O)c(-c2csc(-c3ccncc3)n2)cc1Br
CCOC(=O)c1cc(-c2csc(CS(=O)(=O)Cc3ccc(F)cc3)n2)c(=O)[nH]c1C
CCc1[nH]c(=O)c(-c2csc(-c3ccncc3)n2)cc1C(=O)OCCCN(CC)CC
CCOC(=O)c1cc(-c2csc(-c3ccnc(NCCNC(C)C)c3)n2)c(=O)[nH]c1C
CCOC(=O)c1cc(-c2csc(CS(=O)(=O)c3cccs3)n2)c(=O)[nH]c1CC
CCOC(=O)c1cc(-c2csc(-c3ccnc(NCc4ccccn4)c3)n2)c(=O)[nH]c1C
CCOC(=O)c1cc(-c2csc(CS(=O)(=O)c3cccs3)n2)c(=O)[nH]c1C
CCOC(=O)c1cc(-c2csc(CS(=O)(=O)c3ccc(Cl)cc3)n2)c(=O)[nH]c1C
CCOC(=O)c1cc(-c2csc(-c3ccnc(NCCNC(C)=O)c3)n2)c(=O)[nH]c1C
CCOC(=O)c1cc(-c2csc(-c3ccnc(CC)c3)n2)c(=O)[nH]c1C
CCOC(=O)c1cc(-c2csc(-c3ccnc(NC)c3)n2)c(=O)[nH]c1C(C)C
CCOC(=O)c1cc(-c2csc(CS(=O)(=O)c3ccccc3)n2)c(=O)[nH]c1COCc1ccccc1
CCc1ccc(-c2csc(-c3ccncc3)n2)c(=O)[nH]1
CCCc1[nH]c(=O)c(-c2csc(CS(=O)(=O)c3cccs3)n2)cc1C(=O)OCC
CCc1[nH]c(=O)c(-c2csc(-c3ccncc3)n2)cc1C(=O)OCCN1CCCC1
CCOC(=O)c1cc(-c2csc(-c3ccnc(NCc4ccccc4)c3)n2)c(=O)[nH]c1C
CCOC(=O)c1cc(-c2csc(-c3ccnc(N)c3)n2)c(=O)[nH]c1C
CCOC(=O)c1cc(-c2csc(-c3ccnc(NCc4ccco4)c3)n2)c(=O)[nH]c1C
CCOC(=O)c1cc(-c2csc(-c3ccnc(NCC4CCCC4)c3)n2)c(=O)[nH]c1C
CCOC(=O)c1cc(-c2csc(-c3ccnc(NCC4CC4)c3)n2)c(=O)[nH]c1C
CCOC(=O)c1cc(-c2csc(NC)n2)c(=O)[nH]c1C
CCOC(=O)c1cc(-c2csc(CS(=O)(=O)c3cccs3)n2)c(=O)[nH]c1C(C)C
CCOC(=O)c1cc(-c2csc(-c3ccncc3)n2)c(=O)[nH]c1COCc1ccccc1
CCOC(=O)c1cc(-c2csc(CS(=O)(=O)c3ccccn3)n2)c(=O)[nH]c1C
CCOC(=O)c1cc(-c2csc(CS(=O)(=O)c3ccccc3)n2)c(=O)[nH]c1CC
CCOC(=O)c1cc(-c2csc(-c3ccnc(NCCc4cccs4)c3)n2)c(=O)[nH]c1C
CCOC(=O)c1cc(-c2csc(C(C)(C)S(=O)(=O)c3ccccc3)n2)c(=O)[nH]c1C
CCOC(=O)c1cc(-c2csc(-c3ccncc3)n2)c(=O)[nH]c1CC
CCCc1[nH]c(=O)c(-c2csc(CS(=O)(=O)c3ccccc3)n2)cc1C(=O)OCC
Cc1[nH]c(=O)c(-c2csc(-c3ccncc3)n2)cc1C(=O)OC(C)(C)C

Source: the Kinase Knowledgebase extract (Sharma et al. 2016)
